The compounds below were run against Coagulation factor X (Homo sapiens, UniProt P00742) (assay: Inhibition of human coagulation factor 10a using Z-D-Arg-Gly-Arg-pNA.2HCl as substrate preincubated for 15 mins followed by substrate addition by UV absorption assay).
Sequence of Coagulation factor X (P00742 41-179 limits assumed): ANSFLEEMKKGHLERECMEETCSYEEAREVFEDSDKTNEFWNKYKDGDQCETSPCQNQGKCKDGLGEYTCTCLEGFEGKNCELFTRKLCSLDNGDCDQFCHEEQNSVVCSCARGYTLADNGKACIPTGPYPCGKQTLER
Sequence of Coagulation factor X (P00742 235-488 limits assumed): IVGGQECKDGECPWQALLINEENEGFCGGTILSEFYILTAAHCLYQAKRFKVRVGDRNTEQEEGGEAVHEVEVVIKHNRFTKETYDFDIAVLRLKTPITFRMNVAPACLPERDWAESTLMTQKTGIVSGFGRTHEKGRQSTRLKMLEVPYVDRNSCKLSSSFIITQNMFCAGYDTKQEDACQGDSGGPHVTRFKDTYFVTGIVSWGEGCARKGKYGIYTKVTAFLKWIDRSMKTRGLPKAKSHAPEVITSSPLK
For `CC1(C)OCC([C@]2(C)C=C3CC[C@@H]4[C@](C)(CO)C[C@@H](O)C[C@@]4(C)[C@@H]3CC2)O1` (stereo not given in full), the IC50 was 7.16 µM.
In the case of `CC(=O)OC[C@]1(C)C[C@@H](OC(C)=O)C[C@@]2(C)[C@@H]3CC[C@](C)(O)CC=C3CC[C@H]12`, the IC50 is reported as 0.081 µM.
Work on `CC(=O)O[C@@H]1CC[C@@]2(C)[C@@H]3CC[C@](C)([C@@H](O)CO)C=C3CC[C@@H]2C1(C)C` yielded an IC50 of 3.03 µM.
With `CC(=O)O[C@@H]1CC[C@@]2(C)[C@@H]3CC[C@](C)(O)CC=C3CC[C@@H]2C1(C)C` the IC50 was 5.73 µM.
In the case of `CC(=O)OC[C@]1(C)C[C@@H](OC(C)=O)C[C@@]2(C)[C@@H]3CC[C@](C)(CO)C=C3CC[C@H]12`, the IC50 is reported as 1.07 µM.
`CC(=O)OC[C@]1(C)C[C@@H](OC(C)=O)C[C@@]2(C)[C@@H]3CC[C@](C)([C@@H](O)CO)C=C3CC[C@H]12` showed an IC50 of 5.62 µM.
`CC1(C)OCC([C@]2(C)C=C3CC[C@@H]4C(C)(C)[C@H](O)CC[C@@]4(C)[C@@H]3CC2)O1` (stereo not given in full) gave an IC50 of 1.02 µM.
In the case of `CC(=O)O[C@@H]1CC[C@@]2(C)[C@@H]3CC[C@](C)(CO)C=C3CC[C@@H]2C1(C)C`, the IC50 is reported as 8.45 µM.
For `CC1(C)[C@H](O)CC[C@@]2(C)[C@@H]3CC[C@](C)([C@@H](O)CO)C=C3CC[C@H]12` [DARUTIGENOL], the IC50 was 11.4 µM.
With `C[C@@]1(CO)C[C@@H](O)C[C@@]2(C)[C@@H]3CC[C@](C)([C@@H](O)CO)C=C3CC[C@H]12` [KIRENOL] the IC50 was 2.57 µM.
